Publication PMC6754432, “Radiochemical examination of transthyretin (TTR) brain penetration assisted by iododiflunisal, a TTR tetramer stabilizer and a new candidate drug for AD” (Scientific Reports, 2019)

How the values were obtained:
[1] = biological target: T1, TTR (Homo sapiens, UniProt P02766); assay: Displacement of bound [131I]IDIF from TTR-[131I]IDIF complex by non-labeled IDIF; format: binding; conditions: concentrations over 50 μM of IDIF, TTR complex 0.11 μM, overnight 4 °C
T1 construct: made in house
Protocol: Likewise, the preparation of [^131I]TTR-IDIF was carried out under adequate conditions to ensure that all the [^131I]TTR was stabilized with IDIF. This is extremely important because the separation of [^131I]TTR from [^131I]TTR-IDIF is unfeasible using chromatographic techniques. […] It was observed that a concentration of IDIF = 50 µM displaced > 99% of bound [^131I]IDIF.
First, the TTR/IDIF relative amount to achieve complete formation of the complex was determined. With that aim, six 100 μL aliquots of the [^131I]IDIF-TTR complex prepared as described above were incubated overnight (T = 4 °C) with different amounts of non-radioactive IDIF in 100 μL TNE buffer (final concentrations of IDIF = 0.88, 2.63, 8.76, 17.5, 52.5 and 175 μM, respectively; final concentration of TTR as TTR-[^131I]IDIF complex = 0.11 μM). After incubation, the samples were eluted through illustra^TM NAP-5 columns (GE Healthcare, USA) and radioactivity corresponding to the collected fractions of free [^131I]IDIF and TTR-[^131I]IDIF complex were compared to determine the proportion of [^131I]IDIF free and bound to TTR. For concentrations over 50 μM of IDIF, the displacement was > 97%.

[2] = Ex vivo biodistribution by dissection and gamma counting after intravenous administration; format: in vivo; conditions: i.v., mice
Protocol: The biodistribution of [^131I]TTR after intravenous administration in wild type mice was first investigated. With that aim, animals (n = 3 per time point) were administered with the radiotracer and sacrificed by exsanguination at pre-defined time points. Major organs were harvested together with blood and urine and the amount of radioactivity was determined by gamma counting. (Fig. 2, red bars).
Animals (n = 3 per compound and time point) were anesthetized with isoflurane 5% in pure oxygen and a solution containing [^131I]TTR, [^131I]IDIF, [^131I]TTR-IDIF complex or TTR-[^131I]IDIF complex (0.9 ± 0.4 MBq/120 μl) was injected through one of the lateral tail veins. Animals were recovered from anaesthesia and at pre-determined time points (t = 5, and 15 min and 1, 6 and 24 h), animals were sacrificed by perfusion using saline solution and kidneys, spleen, liver, small intestine, and brain were quickly removed and rinsed with water. The amount of activity in each organ was measured in an automatic gamma counter (2470 Wizard, PerkinElmer). Urine and blood samples were obtained just before perfusion. Part of the blood was processed to separate the plasma, which was also counted in the gamma counter.
For dissection and gamma counting experiments to assess biodistribution, values obtained for different compounds at each time point and organ were compared using t-student test, comparison of two independent means, using the GraphPad Prism software (version 7.03).

| Structure (SMILES) | displacement of [131I]IDIF [1] [%] | percentage of injected dose per gram of blood ([2]; blood, t = 5 min, n = 3) [%ID/g] | maximum value in brain ([2]; brain, 1 h after administration) [%ID/g] | accumulation in kidneys ([2]; kidneys, t = 5 min) [% ID/g] | accumulation in liver ([2]; liver, t = 5 min) [% ID/g] | accumulation in small intestine (peak) ([2]; small intestine, peak at t = 1–6 h) |
| --- | --- | --- | --- | --- | --- | --- |
| O=C(O)c1cc(-c2ccc(F)cc2F)cc(I)c1O [IDIF, iododiflunisal] | > 97 | – | – | – | – | – |
| O=C(O)c1cc(-c2ccc(F)cc2F)cc([131I])c1O [[^131I]IDIF, [^131I]iododiflunisal] | – | 23.3 ± 7.6 | 0.05 | 14.9 ± 3.0 | 20.0 ± 5.5 | ca. 15 % ID/g |
